The results in this text go back to patent US20250019379A1, “NEW CRYSTAL FORM OF COMPOUND, AND PREPARATION METHOD THEREFOR AND USE THEREOF” (E-nitiate Biopharmaceuticals (Hangzhou) Co., Ltd, priority 2021, published 2025).

Holding throughout (assay type): physicochemical
Series [1] in a line: Thermodynamic analysis experiment (heating, XRPD). Here is the method:
Crystalline form H and crystalline form S were heated to appropriate temperatures under N2 protection, and after cooling to room temperature, the XRPD of the solids was measured.

Series [2] is described as follows: Influencing factors test (light, high temperature, high humidity). The following applies: 5000Lx light, 60° C., 90% RH±5% RH; 0, 5, 10, 30 days. On the procedure:
The stability of the crystalline form of the present invention under accelerated test conditions was determined. […] Stability testing was conducted under the following conditions, and samples were taken on the 0th day, the 5th day, the 10th day and the 30th day. The content, total impurities, and XRPD patterns of the samples were recorded and compared with the initial data.

Series [3] is described as follows: Crystal form stability test. Here is the method:
The crystalline form M was stored at a temperature of 25° C. and a humidity of 55% RH for 35 days, and the XRPD of the solid was tested.

A short description of series [4]: Dynamic solubility in biological solvents at 37° C. The following applies: 37° C. On the procedure: (1) Preparation method of FaSSIF: a. Weigh 42 mg NaOH, 395 mg NaH2PO4·H2O and 619 mg NaCl in a 100 mL beaker, add 90 mL deionized water to dissolve: b. Adjust the pH to […]; Dilute to 100 mL with deionized water to obtain FaSSIF blank solvent: c. Weigh 224 mg of Simulated Intestinal Fluid (hereinafter referred to as SIF powder), add 50 mL of the above FaSSIF blank solvent, and stir until completely dissolved; use Dilute the FaSSIF blank solvent to 100 mL to prepare the solvent FaSSIF; d. Let it stand at room temperature for 2 hours before use.
(2) Preparation method of FeSSIF: a. Weigh 404 mg NaOH, 865 mg glacial acetic acid and 1189 mg NaCl in a 100 mL beaker, add 90 mL deionized water to dissolve: b. Adjust the pH to 5.0 with 1N NaOH or 1N HCl; Dilute to 100 mL with deionized water to obtain FeSSIF blank solvent; c. Weigh 1120 mg SIF powder and add 50 mL of the above FeSSIF blank solvent, stir until dissolved: dilute to 100 mL with FeSSIF blank solvent to obtain FeSSIF solvent d. Let it stand at room temperature before use to ensure a clear solution.
(3) Preparation method of SGF: a. Weigh 200 mg NaCl in a 100 mL beaker, add 90 mL deionized water to dissolve; b. Adjust the pH to 1.6 with 1N HCl; dilute to 100 mL with deionized water to obtain SGF Blank solvent; c. Weigh 6 mg SIF powder and add 50 mL of the above SGF blank solvent, stir until dissolved: dilute to 100 mL with SGF blank solvent to prepare the solvent SGF: d. Let it stand at room temperature before use to ensure a clear solution.
(100 rpm). Take 1.3 mL of the suspension (or clarified solution) respectively at 1, 4, and 24 hours, and centrifuge the suspension for 5 minutes. The solid obtained is used for crystal form detection (XRPD), and the supernatant/clarified solution is filtered for solubility testing and pH test.
Solubility data of the samples were collected using a high-performance liquid chromatograph equipped with an image diode array detector.

The nature of series [5]: Solid state stability (HPLC purity, XRPD). The following applies: for Purity (%): open. On the procedure:
Purity testing (via HPLC) and crystal form detection (via XRPD) were performed on starting samples, samples stored for one week, and samples stored for two weeks.

`C[C@@H](O)c1nc2cnc3[nH]ccc3c2n1N1CCC(CC#N)CC1` [Crystalline form H, (R)-2-(1-(2-(1-hydroxyethyl)imidazo[4,5-d]pyrrolo[2,3-b]pyridine-1(6H)-yl)piperidin-4-yl)acetonitrile]: the “crystal form after heating (XRPD)” value was “partially converted into crystalline form A” in series [1] (heated to 162° C. under N2, cooled to room temperature) and “completely converted into crystalline form A” in series [1] (heated to 210° C. under N2, cooled to room temperature). Further, the “stability under accelerated test conditions (content, total impurities, XRPD)” value in series [2] is reported as “better stability”.

In the case of `C[C@@H](O)c1nc2cnc3[nH]ccc3c2n1N1CCC(CC#N)CC1` [Crystalline form M, (R)-2-(1-(2-(1-hydroxyethyl)imidazo[4,5-d]pyrrolo[2,3-b]pyridine-1(6H)-yl)piperidin-4-yl)acetonitrile], in series [3], the “stability under ambient temperature and humidity” value is “unstable”. Further, the “crystal form after storage (XRPD)” value in series [3] (25° C., 55% RH, 35 days) was “transformed into the crystalline form A”.

For `C[C@@H](O)c1nc2cnc3[nH]ccc3c2n1N1CCC(CC#N)CC1` [Crystalline form Q, (R)-2-(1-(2-(1-hydroxyethyl)imidazo[4,5-d]pyrrolo[2,3-b]pyridine-1(6H)-yl)piperidin-4-yl)acetonitrile], the “Changes in Crystal form” value in series [4] (FaSSIF, 1 h) is reported as “no change”; in series [4] (FaSSIF, 24 h) it was “no change”; in series [4] (FeSSIF, 24 h) it was “no change”; in series [4] (SGF, 1 h), “no change”; in series [4] (SGF, 24 h), “no change”. The pH in series [4] (FaSSIF, 1 h) came out at 6.45; in series [4] (FaSSIF, 4 h) it was 6.40; in series [4] (FaSSIF, 24 h), 6.49; in series [4] (FeSSIF, 1 h) it was 4.96; in series [4] (FeSSIF, 4 h), 4.98; in series [4] (FeSSIF, 24 h), 5.00. Further, the pH in series [4] (SGF, 1 h) worked out at 2.60; in series [4] (SGF, 4 h) it was 2.98; in series [4] (SGF, 24 h) it was 2.71. The “crystal form stability when suspended and stirred” value in series [4] (SGF/FeSSIF/FeSSIF, 24 hours) was “stable”. The “solid-state stability (conclusion)” value in series [5] is reported as “good solid-state stability”. Further, the “Purity (%)” value in series [5] (1 week, 25° C./60% RH) is 99.80%; in series [5] (1 week, 40° C./75% RH) it was 99.93%; in series [5] (1 week, 60° C.), 99.91%; in series [5] (2 week, 25° C./60% RH), 99.87%; in series [5] (2 week, 40° C./75% RH), 99.87%; in series [5] (2 week, 60° C.) it was 99.92%. The Crystal form changes result in series [5] (1 week, 25° C./60% RH, 40° C./75% RH, 60° C.) is given as “no change”; in series [5] (2 week, 25° C./60% RH, 40° C./75% RH, 60° C.), “no change”. Also, the “change in the crystalline form (XRPD)” value in series [5] (after one week and two weeks of storage under the selected conditions) is “no change”. Further, the change in purity entry in series [5] (after one week and two weeks under the selected conditions) is given as “no significant change”. Further, the “Starting sample Purity (%)” value in series [5] (starting sample) is reported as 99.87%. Also, the “stability under accelerated test conditions (content, total impurities, XRPD)” value in series [2] is listed as “better stability”.

Take `C[C@@H](O)c1nc2cnc3[nH]ccc3c2n1N1CCC(CC#N)CC1` [Crystalline form S, (R)-2-(1-(2-(1-hydroxyethyl)imidazo[4,5-d]pyrrolo[2,3-b]pyridine-1(6H)-yl)piperidin-4-yl)acetonitrile]: in series [1] (heated to 215° C. under N2, cooled to room temperature), the “crystal form after heating (XRPD)” value was “converted into crystalline form A”.
